Test results from PubChem BioAssay (NCI).
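Values below derive from 48-hour exposures of cells grown in 96-well plates, with endpoints linearly interpolated between the two concentrations bracketing the appropriate inhibition level. TGI is the concentration that stops growth completely.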

Tests used:
Assay in all cases: growth of human tumour cells (NCI), 48 h
COLO 205 colon = system: COLO 205 colon
UACC-62 melanoma = system: UACC-62 melanoma
IGROV1 ovarian = system: IGROV1 ovarian
SK-MEL-5 melanoma = system: SK-MEL-5 melanoma
LOX IMVI melanoma = system: LOX IMVI melanoma
M14 melanoma = system: M14 melanoma
MCF7 breast = system: MCF7 breast
NCI-H522 lung = system: NCI-H522 lung
TK-10 renal = system: TK-10 renal
NCI-H226 lung = system: NCI-H226 lung
MOLT-4 leukemia = system: MOLT-4 leukemia
SK-OV-3 ovarian = system: SK-OV-3 ovarian
HCT-116 colon = system: HCT-116 colon
SR leukemia = system: SR leukemia
OVCAR-5 ovarian = system: OVCAR-5 ovarian
OVCAR-3 ovarian = system: OVCAR-3 ovarian
BT-549 breast = system: BT-549 breast
MDA-N = system: MDA-N
SK-MEL-28 melanoma = system: SK-MEL-28 melanoma
786-0 renal = system: 786-0 renal
HS 578T breast = system: HS 578T breast
CAKI-1 renal = system: CAKI-1 renal
EKVX NSCLC = system: EKVX NSCLC
HT29 colon = system: HT29 colon
SK-MEL-2 melanoma = system: SK-MEL-2 melanoma
K-562 leukemia = system: K-562 leukemia
HOP-62 NSCLC = system: HOP-62 NSCLC
MDA-MB-435 = system: MDA-MB-435
NCI-H23 lung = system: NCI-H23 lung
UO-31 renal = system: UO-31 renal
RXF 393 renal = system: RXF 393 renal
PC-3 prostate = system: PC-3 prostate
SW-620 colon = system: SW-620 colon
NCI-H460 lung = system: NCI-H460 lung
SNB-19 CNS = system: SNB-19 CNS
SF-295 CNS = system: SF-295 CNS
RPMI-8226 leukemia = system: RPMI-8226 leukemia
HL-60(TB) leukemia = system: HL-60(TB) leukemia
SN12C renal = system: SN12C renal
SF-539 CNS = system: SF-539 CNS
T-47D breast = system: T-47D breast
SF-268 CNS = system: SF-268 CNS
DU-145 prostate = system: DU-145 prostate
SNB-75 CNS = system: SNB-75 CNS
ACHN renal = system: ACHN renal
CCRF-CEM leukemia = system: CCRF-CEM leukemia
UACC-257 melanoma = system: UACC-257 melanoma
NCI/ADR-RES ovarian = system: NCI/ADR-RES ovarian
A498 renal = system: A498 renal
HOP-92 NSCLC = system: HOP-92 NSCLC
OVCAR-8 ovarian = system: OVCAR-8 ovarian
KM12 colon = system: KM12 colon
HCT-15 colon = system: HCT-15 colon
A549 NSCLC = system: A549 NSCLC
HCC-2998 colon = system: HCC-2998 colon
MDA-MB-231 breast = system: MDA-MB-231 breast
OVCAR-4 ovarian = system: OVCAR-4 ovarian
U251 CNS = system: U251 CNS

SMILES: COC1=CC(=O)c2c(c(-c3csc(C)n3)cn2C)C1=O
- TGI (COLO 205 colon): > 71.1 µM
- TGI (UACC-62 melanoma): 42.5 µM
- TGI (IGROV1 ovarian): 72.2 µM
- TGI (SK-MEL-5 melanoma): 4.97 µM
- TGI (LOX IMVI melanoma): > 100 µM
- TGI (M14 melanoma): > 100 µM
- TGI (MCF7 breast): > 69.5 µM
- TGI (NCI-H522 lung): 91.4 µM
- TGI (TK-10 renal): > 100 µM
- TGI (NCI-H226 lung): > 100 µM
- TGI (MOLT-4 leukemia): > 100 µM
- TGI (SK-OV-3 ovarian): > 100 µM
- TGI (HCT-116 colon): > 77.5 µM
- TGI (SR leukemia): > 100 µM
- TGI (OVCAR-5 ovarian): > 95 µM
- TGI (OVCAR-3 ovarian): 36.4 µM
- TGI (BT-549 breast): > 100 µM
- TGI (MDA-N): 35.1 µM
- TGI (SK-MEL-28 melanoma): > 100 µM
- TGI (786-0 renal): > 76.7 µM
- TGI (HS 578T breast): > 100 µM
- TGI (CAKI-1 renal): > 73.5 µM
- TGI (EKVX NSCLC): 77.9 µM
- TGI (HT29 colon): 91.6 µM
- TGI (SK-MEL-2 melanoma): > 63.8 µM
- TGI (K-562 leukemia): > 100 µM
- TGI (HOP-62 NSCLC): > 68.4 µM
- TGI (MDA-MB-435): 26.8 µM
- TGI (NCI-H23 lung): 15 µM
- TGI (UO-31 renal): > 73.4 µM
- TGI (RXF 393 renal): 43.3 µM
- TGI (PC-3 prostate): > 68.6 µM
- TGI (SW-620 colon): > 100 µM
- TGI (NCI-H460 lung): 19.9 µM
- TGI (SNB-19 CNS): > 81.2 µM
- TGI (SF-295 CNS): > 67.1 µM
- TGI (RPMI-8226 leukemia): > 19.8 µM
- TGI (HL-60(TB) leukemia): 23.9 µM
- TGI (SN12C renal): > 68.9 µM
- TGI (SF-539 CNS): 54.7 µM
- TGI (T-47D breast): > 64.3 µM
- TGI (SF-268 CNS): > 100 µM
- TGI (DU-145 prostate): > 45.9 µM
- TGI (SNB-75 CNS): 19 µM
- TGI (ACHN renal): > 71.9 µM
- TGI (CCRF-CEM leukemia): > 94.4 µM
- TGI (UACC-257 melanoma): 32.6 µM
- TGI (NCI/ADR-RES ovarian): > 79.1 µM
- TGI (A498 renal): 72.6 µM
- TGI (HOP-92 NSCLC): > 100 µM
- TGI (OVCAR-8 ovarian): > 94.8 µM
- TGI (KM12 colon): > 100 µM
- TGI (HCT-15 colon): > 52.5 µM
- TGI (A549 NSCLC): > 41.6 µM
- TGI (HCC-2998 colon): > 100 µM
- TGI (MDA-MB-231 breast): > 86.6 µM
- TGI (OVCAR-4 ovarian): > 100 µM
- TGI (U251 CNS): > 100 µM

SMILES: C#CCCOC(=O)CC1=C(C)/C(=C/c2ccc(S(C)=O)cc2)c2ccc(F)cc21 (stereo unspecified)
- TGI (COLO 205 colon): 32.9 µM
- TGI (UACC-62 melanoma): 27.4 µM
- TGI (IGROV1 ovarian): 83.1 µM
- TGI (SK-MEL-5 melanoma): 24.7 µM
- TGI (LOX IMVI melanoma): 33.1 µM
- TGI (M14 melanoma): 33.1 µM
- TGI (MCF7 breast): 37.8 µM
- TGI (NCI-H522 lung): 47 µM
- TGI (TK-10 renal): 83.3 µM
- TGI (NCI-H226 lung): 43.3 µM
- TGI (MOLT-4 leukemia): 44.1 µM
- TGI (SK-OV-3 ovarian): 84.3 µM
- TGI (HCT-116 colon): 32.3 µM
- TGI (SR leukemia): 22.1 µM
- TGI (OVCAR-5 ovarian): > 100 µM
- TGI (OVCAR-3 ovarian): 33.8 µM
- TGI (BT-549 breast): 30.5 µM
- TGI (MDA-N): 21 µM
- TGI (786-0 renal): 44.7 µM
- TGI (HS 578T breast): 40.4 µM
- TGI (CAKI-1 renal): 65.4 µM
- TGI (EKVX NSCLC): 71.9 µM
- TGI (SK-MEL-2 melanoma): 30.5 µM
- TGI (K-562 leukemia): 35.3 µM
- TGI (HOP-62 NSCLC): > 100 µM
- TGI (MDA-MB-435): 17.4 µM
- TGI (NCI-H23 lung): 68.9 µM
- TGI (UO-31 renal): 33.6 µM
- TGI (RXF 393 renal): 84.7 µM
- TGI (PC-3 prostate): 28.7 µM
- TGI (SW-620 colon): 29.9 µM
- TGI (NCI-H460 lung): 35.4 µM
- TGI (SNB-19 CNS): 29.6 µM
- TGI (SF-295 CNS): 29.4 µM
- TGI (RPMI-8226 leukemia): 32.4 µM
- TGI (HL-60(TB) leukemia): 20.7 µM
- TGI (SN12C renal): 35.6 µM
- TGI (SF-539 CNS): 30.5 µM
- TGI (T-47D breast): 53.7 µM
- TGI (SF-268 CNS): 50 µM
- TGI (DU-145 prostate): 31.4 µM
- TGI (SNB-75 CNS): 44.8 µM
- TGI (ACHN renal): 44.3 µM
- TGI (CCRF-CEM leukemia): 35 µM
- TGI (UACC-257 melanoma): 29.7 µM
- TGI (NCI/ADR-RES ovarian): 36 µM
- TGI (A498 renal): 30.4 µM
- TGI (HOP-92 NSCLC): 26.1 µM
- TGI (OVCAR-8 ovarian): 42.8 µM
- TGI (KM12 colon): 27.3 µM
- TGI (HCT-15 colon): 27.1 µM
- TGI (HCC-2998 colon): 22.3 µM
- TGI (MDA-MB-231 breast): 26 µM
- TGI (OVCAR-4 ovarian): 43 µM
- TGI (U251 CNS): 29.4 µM

SMILES: CC(=O)N(C)C(C(=O)N1CC(C)CC1C(=O)N(C)C1C(=O)NC(CC(C)C)C(=O)N2CC(C)CC2C(=O)NC(CC(C)C)C(=O)N(C)C(C(C)C)C(=O)N2CCCC2C(=O)N(C)C(CC(C)C)C(=O)NCC(=O)OC1C)C(C)C (stereo unspecified)
- TGI (COLO 205 colon): > 100 µM
- TGI (UACC-62 melanoma): > 100 µM
- TGI (IGROV1 ovarian): > 100 µM
- TGI (SK-MEL-5 melanoma): > 100 µM
- TGI (LOX IMVI melanoma): > 100 µM
- TGI (M14 melanoma): > 100 µM
- TGI (MCF7 breast): > 100 µM
- TGI (NCI-H522 lung): > 100 µM
- TGI (TK-10 renal): > 100 µM
- TGI (NCI-H226 lung): > 100 µM
- TGI (MOLT-4 leukemia): > 100 µM
- TGI (SK-OV-3 ovarian): > 100 µM
- TGI (HCT-116 colon): > 100 µM
- TGI (SR leukemia): > 100 µM
- TGI (OVCAR-5 ovarian): > 100 µM
- TGI (OVCAR-3 ovarian): > 100 µM
- TGI (BT-549 breast): > 100 µM
- TGI (MDA-N): > 100 µM
- TGI (SK-MEL-28 melanoma): > 100 µM
- TGI (786-0 renal): > 100 µM
- TGI (HS 578T breast): > 100 µM
- TGI (CAKI-1 renal): > 100 µM
- TGI (EKVX NSCLC): > 100 µM
- TGI (HT29 colon): > 100 µM
- TGI (SK-MEL-2 melanoma): > 100 µM
- TGI (K-562 leukemia): > 100 µM
- TGI (HOP-62 NSCLC): > 100 µM
- TGI (MDA-MB-435): > 100 µM
- TGI (NCI-H23 lung): > 100 µM
- TGI (UO-31 renal): > 100 µM
- TGI (RXF 393 renal): > 100 µM
- TGI (PC-3 prostate): > 100 µM
- TGI (SW-620 colon): > 100 µM
- TGI (NCI-H460 lung): > 100 µM
- TGI (SNB-19 CNS): > 100 µM
- TGI (SF-295 CNS): > 100 µM
- TGI (RPMI-8226 leukemia): > 100 µM
- TGI (HL-60(TB) leukemia): > 100 µM
- TGI (SN12C renal): > 100 µM
- TGI (SF-539 CNS): > 100 µM
- TGI (T-47D breast): > 100 µM
- TGI (SF-268 CNS): > 100 µM
- TGI (DU-145 prostate): > 100 µM
- TGI (SNB-75 CNS): > 100 µM
- TGI (ACHN renal): > 100 µM
- TGI (CCRF-CEM leukemia): > 100 µM
- TGI (UACC-257 melanoma): > 100 µM
- TGI (NCI/ADR-RES ovarian): > 100 µM
- TGI (A498 renal): > 100 µM
- TGI (HOP-92 NSCLC): > 100 µM
- TGI (OVCAR-8 ovarian): > 100 µM
- TGI (KM12 colon): > 100 µM
- TGI (HCT-15 colon): > 100 µM
- TGI (A549 NSCLC): > 100 µM
- TGI (HCC-2998 colon): > 100 µM
- TGI (MDA-MB-231 breast): > 100 µM
- TGI (OVCAR-4 ovarian): > 100 µM
- TGI (U251 CNS): > 100 µM
